Experimental data published in US20120108563A1, “Methods Of Treating Liposarcoma” (Infinity Pharmaceuticals, Inc., priority 2009, published 2012).

Tested on: dedifferentiated metastatic liposarcoma
Experiment: Administration of compound 2 to a human subject with dedifferentiated metastatic liposarcoma (imaging assessment, RECIST)
Type: in vivo
Conditions: one human patient
Method: A human subject with dedifferentiated metastatic liposarcoma was treated with compound 2 at 400 mg/m^2. The patient received two doses of compound 2 at 400 mg/m^2 during the first cycle of therapy. The patient received two doses at 300 mg/m^2 during the second cycle of therapy. The patient then received 225 mg/m^2 for seven cycles of therapy. […] The patient received a total of 9 cycles of compound 2 with maximal tumor shrinkage occurring after 7 cycles (54% tumor shrinkage).

[1] = after first cycle of therapy (two doses at 400 mg/m^2)

Question: With `C=CCNc1c(O)cc2c(O)c1C[C@@H](C)C[C@H](OC)[C@H](O)[C@@H](C)/C=C(\C)[C@H](OC(N)=O)[C@@H](OC)/C=C\C=C(/C)C(=O)N2.Cl` [compound 2, Hydrochloride Salt of the Hydroquinone of 17-AAG] as the compound, how does the maximal tumor shrinkage (after 7 cycles, of 9 cycles in total) read?
Answer: 54%

Question: And the “imaging assessment of response (RECIST)” value [1]?
Answer: stable disease

Question: What about the “tumor shrinkage using Response Evaluation Criteria in Solid Tumors (RECIST)” value [1] of the same compound?
Answer: 28%

Question: And the response achieved (by the end of cycle 3)?
Answer: partial response

Question: What about the tumor shrinkage (by the end of cycle 3 (cycle 1 at 400 mg/m^2, cycle 2 at 300 mg/m^2, then 225 mg/m^2)) of the same compound?
Answer: 35%
